From PubChem BioAssay (NCI)
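In this assay, cells in 96-well plates receive the compound at five concentrations for 48 hours. Endpoints are linearly interpolated between the surrounding concentrations. Here, GI50 denotes the concentration required for 50% inhibition of growth. TGI is the concentration that stops growth completely.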

Key:
Experiment in all cases: NCI anticancer screen, dose series, 48 h
[1] = system: OVCAR-8 ovarian
[2] = system: UO-31 renal
[3] = system: K-562 leukemia
[4] = system: HCC-2998 colon
[5] = system: HT29 colon
[6] = system: SNB-75 CNS
[7] = system: CCRF-CEM leukemia
[8] = system: SK-MEL-28 melanoma
[9] = system: A498 renal

| SMILES | TGI [1] [µM] | TGI [2] [µM] | TGI [3] [µM] | TGI [4] [µM] | TGI [5] [µM] | TGI [6] [µM] | TGI [7] [µM] | TGI [8] [µM] | TGI [9] [µM] | GI50 [1] [nM] | GI50 [2] [nM] | GI50 [3] [nM] | GI50 [4] [nM] | GI50 [5] [nM] | GI50 [6] [nM] | GI50 [8] [nM] | GI50 [9] [nM] |
| --- | --- | --- | --- | --- | --- | --- | --- | --- | --- | --- | --- | --- | --- | --- | --- | --- | --- |
| Cc1ccc(-c2nc(SCC(=O)O)n[nH]2)cc1 | > 100 | > 100 | > 100 | > 100 | > 100 | > 100 | > 100 | > 100 | > 100 |  |  |  |  |  |  |  |  |
| CCC[CH2][Sn]([CH2]CCC)([O]C(=O)c1cc(F)cc(F)c1)[O]C(=O)c1cc(F)cc(F)c1 | 2.68 | 2.75 | 0.965 | 2 | 3.06 | 2.09 |  | 2.37 | 2.83 | 1390 | 1440 | 228 | 242 | 1650 | 820 | 1130 | 1490 |
| CCOC(=O)C(=O)Nc1ccc(C)cc1C | > 100 | > 100 | > 100 | > 100 | > 100 |  | > 100 | > 100 |  |  |  |  |  |  |  |  |  |
| Brc1ccc(-c2nnc(-c3nn(-c4ccccc4)c4nc5ccccc5nc34)o2)cc1 | > 100 | > 100 | > 100 | > 100 | > 100 | > 100 | > 100 | > 100 |  |  |  |  |  |  |  |  |  |
| COc1cc(/C=C/c2cc(/C=C/c3ccc(O)c(OC)c3)n(-c3c(C)cccc3C)c(=O)n2)ccc1O | 8.16 | 2.53 | > 100 | 9.15 | 4.71 |  |  | 5.1 | 6.08 | 1510 | 352 | 374 | 2280 | 2130 |  | 1160 | 2400 |
| COc1ccc(/C=C2\CCCCC2=O)cc1 | > 100 | > 100 | > 100 |  | > 100 | > 100 | > 100 | > 100 | > 100 |  |  |  |  |  |  |  |  |
| O=S(O)CCCCCSSCCCCSSCCCCCS(=O)O | > 100 | > 100 | > 100 |  | > 100 | > 100 | > 100 | > 100 | > 100 |  |  |  |  |  |  |  |  |
| CC1C[C@H](OC(N)=O)C(C)CC1=O (stereo partly drawn) | > 100 | > 100 | > 100 | > 100 | > 100 | > 100 | > 100 |  | > 100 |  |  |  |  |  |  |  |  |
